Drawing on patent US7705023B2, “Indoles useful in the treatment of inflammation” (Biolipox AB, priority 2005, dated 2010), this text covers IC50 for 5 compounds.

SMILES strings stand for the structures.

The experiment addresses T1, human mPGES-1 (Homo sapiens, UniProt O14684).
T1 construct: made in house; host or cells: E. coli
T1 sequence (O14684 1-152): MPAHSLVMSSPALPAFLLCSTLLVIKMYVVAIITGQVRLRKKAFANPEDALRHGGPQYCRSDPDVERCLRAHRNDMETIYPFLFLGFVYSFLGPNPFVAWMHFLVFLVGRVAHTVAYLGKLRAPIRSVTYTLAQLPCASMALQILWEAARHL
Kind of experiment: mPGES-1 biological test (conversion of PGH2 to PGE2, HPLC analysis). Type of experiment: biochemical. The following applies: human mPGES-1 expressed in E. coli, membrane fraction; 25 min preincubation with inhibitor, 60 s with PGH2, room temperature; read-out: concentration at which 50% inhibition of mPGES-1 was observed. The method, then: In the assay human mPGES-1 catalyses the reaction where the substrate PGH2 is converted to PGE2. mPGES-1 is expressed in E. coli and the membrane fraction is dissolved in 20 mM NaPi-buffer pH 8.0 and stored at −80° C. In the assay human mPGES-1 is dissolved in 0.1 M KPi-buffer pH 7.35 with 2.5 mM glutathione. The stop solution consists of H2O/MeCN (7/3), containing FeCl2 (25 mM) and HCl (0.15 M). The assay is performed at room temperature in 96-well plates. Analysis of the amount of PGE2 is performed with reversed phase HPLC (Waters 2795 equipped with a 3.9×150 mm C18 column). The mobile phase consists of H2O/MeCN (7/3), containing TFA (0.056%), and absorbance is measured at 195-nm with a Waters 2487 UV-detector.
The following is added chronologically to each well: • 1. 100 μL human mPGES-1 in KPi-buffer with glutathione. Total protein concentration: 0.02 mg/mL. • 2. 1 μL inhibitor in DMSO. Incubation of the plate at room temperature for 25 minutes. • 3. 4 μL of a 0.25 mM PGH2, solution. Incubation of the plate at room temperature for 60 seconds. • 4. 100 μL stop solution. • 180 μL per sample is analyzed with HPLC.
For the compound `CC(C)(C)c1ccc(-c2ccc3c(c2)cc(C(=O)O)n3-c2ccc(C3CCCCC3)cc2)cc1` [Example 64, 5-(4-tert-Butylphenyl)-1-(4-cyclohexylphenyl)-1H-indole-2-carboxylic acid], the IC50 was determined as 170 nM. The figure for `CC(C)Oc1ccc(-n2c(C(=O)O)cc3cc(-c4ccc(C(C)(C)C)cc4)ccc32)cc1` [Example 1, 5-(4-tert-Butylphenyl)-1-(4-isopropoxphenyl)-indole-2-carboxylic acid] is 62 nM; for `O=C(O)c1c(Cl)c2cc(-c3ccc(C(F)(F)F)cn3)ccc2n1-c1ccc(OC2CCCC2)nc1` [Example 36, 3-Chloro-1-(6-cyclopentoxypyrid-3-yl)-5-(5-trifluoromethylpyrid-2-yl)-1H-indole-2-carboxylic acid] it is 1100 nM; for `CC(C)Oc1ccc(-n2c(C(=O)O)cc3cc(-c4ccc(OC(C)C)nc4)ccc32)cc1` [Example 9] it is 610 nM.

For the compound `CC(C)Oc1ccc(-c2ccc3c(c2)c(Cl)c(C(=O)O)n3-c2ccc(OC(C)C)nc2)cc1` [Example 33, 3-Chloro-5-(4-isopropoxyphenyl)-1-(6-isopropoxypyrid-3-yl)indole-2-carboxylic acid], the IC50 was determined as 390 nM.
